Data reported in article PMC6154319, “Intestinal Transport Characteristics and Metabolism of C-Glucosyl Dihydrochalcone, Aspalathin” (Molecules : A Journal of Synthetic Chemistry and Natural …, 2017).

Tests used:
in vitro = details: human, Caco-2, Papp (cm/s) a-b × 10^−6
Procedure: Validation of the Caco-2 transport experiments required consideration of three parameters, i.e., firstly, to determine the cytotoxic concentrations of synthetic aspalathin, secondly, the concentration of aspalathin required to ensure HPLC detection in the basolateral compartment, and finally, to assess whether the transport of aspalathin is concentration dependent.
Cells were cultured at 37 °C and 5% CO2 in 95% humidified air in Eagle’s Minimum Essential Medium (EMEM) containing sodium […] pyruvate, supplemented with 2 mM L-glutamine, 1% non-essential amino acids and 10% heat inactivated FBS. Cell cultures were split when 70%–80% confluent, using trypsin/ethylenediaminetetraacetic acid (EDTA). The culture medium, pre-warmed to 37 °C, was refreshed every 2–3 days. Cells were seeded at 1 × 10^4 cells/cm^2 and a sub-cultivation ratio of 1:3 was routinely used. Cells were seeded with the addition of 1% penicillin/streptomycin mixture (10,000 units/mL potassium penicillin and 10,000 µg/mL streptomycin sulphate) at 4 × 10^4 cells/cm^2 onto 0.4 µm polycarbonate 6-well inserts with an insert area of 4.52 cm^2. Cells were used for transport experiments when TEER values across wells were >300 Ω, typically 21–23 days post confluence. Only passages 50–60 were used to prevent phenotypic drift.
The cell monolayers were equilibrated briefly with transport buffer, pH 6.0 (HBSS with 2-(N-morpholino) ethanesulphonic acid (MES)) on the apical side and pH 7.4 (HBSS with HEPES) on the basolateral side, to remove traces of the culture media. Following this, transport buffers were added for 30 min prior to the addition of treatment (inhibitors were added during this step when required, as well as during the subsequent treatment incubation step). After equilibration, the plates containing transport medium were incubated for 30 min at 37 °C at 5% CO2 in 95% humidified air and the TEER value of the monolayer determined. […] For basolateral-to-apical compartment studies, 2.4 mL of treatment at the same concentrations in HBSS (pH 7.4), was added to the basolateral compartment.
To assess whether aspalathin was co-transported with glucose, its transport (100 µM) at both high (20.5 mM) and low (5.5 mM) glucose concentrations, mimicking the intestinal lumen glucose concentrations pre- and post-meals, was monitored. This was followed by experiments performed in the presence and absence of SGLT1 (100 µM phloridzin), GLUT2 (100 µM phloretin) and efflux, PgP (100 µM verapamil) inhibitors.
Samples (1.2 mL) were withdrawn from the basolateral or the apical compartment to measure the concentration of aspalathin uptake and efflux, respectively at 0, 0.5, 1, 1.5, and 2 h under sink conditions (the sample aliquot replaced with equal volume of relevant transport buffer). Sample aliquots (350 µL) were frozen in liquid nitrogen after the addition of ascorbic acid (35 µL of 10% solution) and stored at −65 °C until HPLC analysis. Results were corrected for dilution and expressed as cumulative transport (% of initial dose) as a function of time. Papp (cm/s) for bi-directional transport studies was calculated as previously described. Transport of other major flavonoids in the matrices, i.e., nothofagin, the 3-deoxy analogue of aspalathin and its flavone derivatives, orientin and isoorientin, were also determined.
Lucifer yellow (final concentration 0.1 mM) was used as a membrane integrity marker and co-incubated with the compounds and extracts.
HPLC-DAD analysis of samples from the apical and basolateral compartments was performed in duplicate on an Agilent 1200 system as previously described. Basolateral and apical samples taken after 2 h with pure aspalathin were also analysed using LC-MS (parameters described in [42]) to determine whether aspalathin metabolites were formed in the Caco-2 model.
All experiments were performed in triplicate and the data expressed as mean ± SD, unless otherwise indicated.

mouse liver microsomes = experiment: In vitro incubation of aspalathin in mouse liver microsomes and phosphate buffer; assay type: in vitro ADME
Procedure: Synthetic aspalathin (10 µM) was incubated at 37 °C in a solution containing 1 mg/mL microsomes (male Mouse BALB/c, Xenotech, Kansas city, KS, USA), magnesium chloride (5 mM) and nicotinamide adenine dinucleotide phosphate (NADPH) (1 mM) in phosphate buffer (100 mM, pH 7.4), for 1 h while shaking. A control containing all the sample constituents (not incubated), another containing no NADPH, and another containing only the compound in phosphate buffer were also included and handled similarly to the test sample.
(§1) The frozen whole blood samples, as well as the samples incubated with microsomes and controls, were thawed, extracted by protein precipitation using 0.1% formic acid (FA) in acetonitrile, centrifuged and filtered through 0.22 µm polyvinylidene difluoride (PVDF) filters (Merck Millipore, Frankfurter Straße, Darmstadt, Germany). Frozen whole urine samples were thawed and diluted 5 times in 0.1% aqueous FA. Samples were analysed by LC-MS/MS on an Agilent 1200 Rapid Resolution HPLC system (600 bar, Agilent Technologies) coupled to a 4000 QTRAP® (AB Sciex, Framingham, MA, USA) equipped with a Turbo V™ […]. Filtered samples (10 μL), stored on a sample tray maintained at 8 °C, were injected on a Gemini C6-Phenyl column (150 × 2.0 mm, 3 µm particles) (Phenomenex, Santa Clara, CA, USA) at 40 °C. […]

[1] = Acute mouse study, metabolite identification in blood and urine by LC-MS/MS; assay type: in vivo; details: oral 50 mg/kg aspalathin, urine over 8 h, tentative identification by LC-MS/MS
Procedure: An acute mouse study was performed under ethical approval from the Ethics Committee for Research on Animals (ECRA) of the South African Medical Research Council (Ref:07/13). Three 8-week old male C57.BKS mice, obtained from the Primate Unit of the South African Medical Research Council (Tygerberg, South Africa), were housed individually in polycarbonate cages with wired lids and kept in a controlled environment of 23–24 °C, 50% humidity, and a 12 h light/dark cycle. Prior to the study, urine was collected from the fasting mice overnight in a metabolic cage. Baseline fasted blood was collected via tail snip into a heparin tube, snap frozen in liquid nitrogen, and stored at −80 °C. Each mouse received a single dose of synthetic aspalathin (50 mg/kg body weight) dissolved in phosphate-buffered saline (PBS) (5 mg/mL) via orogastric gavage. Blood samples were collected and handled as described for fasting at time 0 (pre-gavage), and 1, 2, 4, 6, and 8 h post-gavage. All the samples were collected into the same heparin tube and kept on ice during the experiment. Urine was collected over the 8-h post-gavage monitoring period and the samples were stored at −80 °C until analysis.
as §1

Row | product identified after incubation of aspalathin in mouse liver microsomes (mouse liver microsomes; aspalathin 10 µM, 1 mg/mL microsomes, NADPH, 37 °C, 1 h) | product identified after incubation of aspalathin in phosphate buffer (mouse liver microsomes; phosphate buffer pH 7.4) | metabolite present in mouse urine (relative concentrations) [1] | Molecule | Papp A→B at 2 h (in vitro) [×10⁻⁶ cm/s]
1 | – | – | – | O=c1cc(-c2ccc(O)c(O)c2)oc2cc(O)c([C@@H]3O[C@H](CO)[C@@H](O)[C@H](O)[C@H]3O)c(O)c12 [Isoorientin] | 1.69 ± 0.2
2 | – | – | – | O=c1cc(-c2ccc(O)c(O)c2)oc2c([C@@H]3O[C@H](CO)[C@@H](O)[C@H](O)[C@H]3O)c(O)cc(O)c12 [Orientin] | 1.92 ± 0.2
3 | identified | identified | identified | Eriodictyol-C-glucoside [M1] | –
